In patent US20260306421A1, “SYSTEMS AND METHODS FOR TRANSDERMAN PATCH DELIVERY” (VITAMAX PATCH WHOLESALER LLC, priority 2022, published 2026):
In brackets after ≈: the same amount, converted by molar mass. Like-named read-outs stand apart in the source and are kept apart here. One block for each compound: values may come before it.

How the values were obtained:
[1] = Solubility of cholecalciferol and cholecalciferol phosphate (disodium, acid); type: physicochemical; settings: read-out: Solubility
Protocol: Aliquots of cholecalciferol, cholecalciferol phosphate disodium, and cholecalciferol phosphate acid were added to a range of solvents including propylene glycol (PG), distilled water, methanol, ethyl acetate, ethanol, n-hexane, and the visual solubility was determined. A precise assessment of the saturation solubility was for some of the solvent systems was made using high-performance liquid chromatography (HPLC). In the HPLC solubility studies, an excess of each solute was added into 2 mL of each test solvent. The solutions were left stirring overnight at room temperature, (RT), 22° C. The saturation of the solutions was confirmed by the visual appearance of crystals and the drug suspensions were filtered through 0.2 μm cellulose acetate syringe filters, diluted with excess of mobile phase, and the solute concentration of each sample was assessed using HPLC.

[2] = Chemical stability of cholecalciferol and cholecalciferol phosphate disodium in donor, extraction and receiver fluids; type: physicochemical; settings: for remaining at 24 h: 37° C.
Protocol: To assess the chemical stability of the test agents in the liquids in which they were to be dissolved for the skin permeation experiments, 1 mg/mL solutions of cholecalciferol and cholecalciferol phosphate disodium in propylene glycol (PG) were prepared and incubated at 37° C. for 24 h. In addition, 100 μg/mL cholecalciferol in 50:50 PG:ethanol mixture, 100 μg/mL cholecalciferol phosphate disodium in 90:10 methanol:water mixture as well as and in 50% PG 40% Methanol: 10% water pH 3.2 (90:10) were also incubated at 37° C. for 24 hours.

[3] = Solubility of iron chloride hexahydrate and iron complexes (visual / assayed); type: physicochemical
Protocol: Due to the high number of test samples (6 complexes plus the starting material, iron chloride hexahydrate) a visual solubility screen was used to screen the solubility in a range of solvents. […] Quantitative determination was performed by either incubating the complex in excess in the solvent using a shaking 37° C. water bath for 48 h or sonicating it for 2 hours at 40° C. or leaving overnight on a 50° C. hot plate. Once incubation period was completed, the exact solubility in a particular solvent was assayed (using the iron assay) after centrifugation (i.e. assay iron content in the supernatant using the Ferrozine® assay).

[4] = Iron complex adhesive compatibility and loading screen; type: physicochemical
Protocol: Pre-formulation studies were performed to determine the compatibility of the iron complexes with a range of transdermal patch adhesives (Table 15).
The compatibility of the complexes with the patch adhesives was assessed by mixing and visually checking the clarity of the mixture.
In the adhesives that were computable with the iron complexes the maximum drug loading of the complexes in the adhesive following solvent evaporation was determined. This was achieved by mixing the drug, adhesive and co-solvents until a clear solution was obtained at different drug:adhesive ratios and placing few drops of the mixture onto the patch backing sheet, leaving it to dry for 3-4 h, and examining the formed film on the surface of the backings for evidence of drug crystals.
Following complete drying of the solvents, the adhesive layer was covered by a release liner, compressed, and then cut using 34 mm circular manual die cutter (FIG. 23).

[5] = Iron complex reservoir solvent solubility screening; type: physicochemical
Description: Iron complex was again screened with a range of suitable excipients and solvents to formulate a solution of high concentration that could be loaded into the patch reservoir. The solvents screened included ethanol, methanol, PG, PEG400, SDS, Tween 85, Span 20, Kolliphore®, Natrsol M250 and dimethicone (Note: methanol is not suitable for formulation but it was used to increase solubility in the other solvents. It was evaporated prior to formulation testing).

[6] = Franz cell porcine skin permeation and deposition of iron from solutions; type: in vitro ADME
Protocol: The permeation of the iron complexes from the formulations into and across porcine skin mounted on Franz cells with a receiver fluid was tested (FIG. 4). This was based on the principles of the FDA, SUPAC-SS guidelines. The developed colorimetric assay method was used for iron quantification.
On the day of the experiment, the skin was defrosted. For the full thickness studies, the subcutaneous fat removed (2.5 mm thick) and for the dermatomes skin studies the tissued was dermatomed to a 1 mm thickness. The tissue was cut into the appropriate size sections (2.19±0.21 cm^2) and mounted between donor and receiver compartments of Franz diffusion cells with the SC facing the donor compartment. Each cell was sealed using parafilm and 12 mm magnetic stir bars were placed into the receiver compartment. The receiver compartment was filled with the desired receiver solution and the Franz cells were placed in a stirring water bath at 37° C. Cells were allowed to equilibrate for 30 min after which the receiver fluid using was mixed using a syringe and the “zero hour” sample was withdrawn from the arm and compensate with the same volume of fresh pre-warmed solution. Following zero-hour sampling, the donor solution was placed in the donor compartment and covered with parafilm. Samples were withdrawn and compensated with fresh receiver solution at set time intervals for a 24 h duration. The iron in each sample was quantified using the method specified in Section 2.2.2.1. […] There was no matrix interference noted in the assay. […] For iron maltol a 80:20 PG:water receiver was used along with a complementary calibration for iron assay (iron chloride in PG:water). The donor solution for the iron maltol made at pH 1.6 was 200 μL of 100 mg/mL complex in Transcutul®, for iron maltol made at pH 4 the donor solution was 200 μL of 23 mg/mL complex in PG and for iron maltol made at pH 4 the donor solution was 150 μL of 16 mg/mL complex in 7.5:1.5:1:1 water:PG:dimethicone:ethanol.
Once the permeation studies were completed the donor solutions were collected into bottles containing the extraction solution. This was followed by skin surface cleaning using four cotton buds, the first two were wetted by the extraction fluid and the second two were used dry. Then two tape striping procedures were performed using 2 tapes to remove any iron on the skin surface with the tape being added to the donor solution and cotton buds in the donor recover vial. For the full skin thickness skin, the Stratum corneum, the dermal and the epidermal layers were isolated in the same way as the recovery method (Section 2.3.2.1). Extraction fluid (50:50 PBS:ethanol) was then added to the tissues, 4 mL to the Stratum corneum, and 2 mL for each of the epidermis and dermis. For the dermatomed skin the whole skin section was chopped up and placed in a 2 mL extraction fluid (ethanol).
The Stratum corneum samples were placed on vibrating plate for a minimum of 2 h to extract the iron and then vortexed prior assay. The epidermis, dermis or dermatomed samples however were incubated with the extraction fluid for 1 h after which were transferred to Eppendorf tubes, one stainless steel 5 mm bead was added and the samples were loaded into the TissuLyser II (Qiagen, Germany) for 30-15 min at 30 Hz. The samples were then centrifuged (5 min at 13,000 rpm) and supernatant assayed.

[7] = Iron maltol made at pH 7.4, 10 mg complex, 62.5 μL PG, 60 μL ethanol, 125 μL water, 62.5 μL Kolliphore
[8] = Iron maltol made at pH 7.4, 10 mg complex, 125 μL PG, 60 μL ethanol, 62.5 μL water, 62.5 μL Kolliphore
[9] = donor liquid paraffin:ethanol, 24 h

Compound: C=C1CC[C@H](O)C/C1=C/C=C1\CCC[C@]2(C)[C@@H]([C@H](C)CCCC(C)C)CC[C@@H]12 [Cholecalciferol, reference compound]
Solubility ([1]; organic solvent or mixture, solvent PG): 7800 ± 190 µg/mL (≈ 20.3 mM)
Solubility ([1]; solvent PG + 5% water): 2400 ± 2 µg/mL
Solubility ([1]; solvent PG + 10% water): 1100 ± 5 µg/mL
Solubility ([1]; solvent PG + 20% water): 700 ± 4 µg/mL
remaining at 24 h ([2]; PG): 93 ± 13%
chemical stability (in words) ([2]; conclusions): indication of chemical instability
remaining at 24 h ([2]; extraction fluid 50:50 PG:ethanol): 92 ± 8%

Compound: CCc1occc(=O)c1[O-].CCc1occc(=O)c1[O-].CCc1occc(=O)c1[O-].[Fe+3] [Iron ethyl maltol made at pH 7.4, iron ethyl maltol]
Solubility of complex (visual) ([3]; PEG400): <8 mg/mL Iron
Solubility of complex ([3]; PG): 2.7 mg/mL Iron
Solubility, equivalent elemental iron ([3]; PG): 320 µg/mL
Solubility of complex ([3]; Saline): 360 μg/mL Iron
Solubility, elemental iron ([3]; Saline): (44 μg/mL
Solubility in DURO-TAK 9301 patch ([4]; drug loading 2.5-10%, no permeation enhancer): Precipitated
Solubility in DURO-TAK 9301 patch ([4]; drug loading 4%, 2 mg PEG400): Clear
Solubility in DURO-TAK 9301 patch ([4]; drug loading 4%, 2 mg PG): Clear
Solubility in DURO-TAK 9301 patch ([4]; drug loading 4%, no permeation enhancer): Clear
Solubility in DURO-TAK 9301 patch ([4]; drug loading 5%, 2.5 mg Transcutol): Precipitated
Solubility in DURO-TAK 9301 patch ([4]; drug loading 5%, 2.6 mg PEG400): Precipitated
Solubility in DURO-TAK 9301 patch ([4]; drug loading 5%, 5 mg PEG400): Precipitated
Solubility in DURO-TAK 9301 patch ([4]; drug loading 5%, 5 mg Transcutol): Clear
Solubility in DURO-TAK 9301 patch ([4]; drug loading 6%, 3.3 mg PEG400): Precipitated
Solubility in DURO-TAK 9301 patch ([4]; drug loading 7.5%, 4 mg Transcutol): Precipitated
Solubility in DURO-TAK 9301 patch ([4]; drug loading 7.5-10%, 4-5.5 mg PG): Precipitated
Solubility in DURO-TAK 9301 patch ([4]; drug loading 10-7.5%, 5.5-4 mg PEG400): Precipitated

Compound: CCC(=O)[O-].CCC(=O)[O-].CCC(=O)[O-].[Fe+3] [Iron propionate made at pH 4, iron propionate]
iron passing through the skin ([6]; applied as solution): neither the patch nor the solution allowed iron to pass through the skin
deposition into the skin ([6]; applied to the skin as a PG solution): 8 μg/cm^2
permeation and deposition in the skin ([6]; solutions, 24 h): permeated and deposited in the skin

Compound: iron oleate
deposition, all layers combined ([6]; donor Miglyol, 24 h): 3.7 μg/cm^2
elemental iron permeated the skin ([6]; donor Miglyol, 24 h): 2.5±1.8 μg/cm^2
deposition, all layers combined [6, 9]: 5.3 μg/cm^2
elemental iron permeated the skin [6, 9]: 4.4±1.5 μg/cm^2

More lines, now with the values ahead:

Solubility of complex ([3]; PEG400): 15 mg/mL Iron
Solubility, equivalent elemental iron ([3]; PEG400): (1.8 mg/mL
Solubility of complex ([3]; PG): 8.3 mg/mL Iron
Solubility, equivalent elemental iron ([3]; PG): 1 mg/ml mg/mL
Compound: CCc1occc(=O)c1[O-].CCc1occc(=O)c1[O-].CCc1occc(=O)c1[O-].[Fe+3] [Iron ethyl maltol made at pH 4, iron ethyl maltol]

Solubility of complex (visual) ([3]; Chloroform): ≥20 mg/mL Iron
Solubility of complex (visual) ([3]; Ethanol): ≥6 mg/mL Iron maltol*
Solubility of complex (visual) ([3]; Ethyl acetate): <6 mg/mL Iron maltol*
Solubility of complex (visual) ([3]; Hexane): <6 mg/mL Iron maltol*
Solubility of complex (visual) ([3]; Methanol): ≥18 mg/mL Iron
Solubility of complex (visual) ([3]; Oleic acid): <6 mg/mL Iron maltol*
Solubility of complex (visual) ([3]; Propanol): <6 mg/mL Iron maltol*
Solubility of complex (visual) ([3]; Triaceten): <6 mg/mL Iron maltol*
compatibility with adhesives [4]: only compatible with DURO-TAK 9301
(maximum) complex loading achieved in adhesive ([4]; methanol stock solution 10 mg/mL): 4%
complex loading achieved in adhesive patch ([4]; methanol stock solution 18 mg/mL): 8.5%
Observation (solubility, complex) ([5]; Iron maltol made at pH 4, 10 mg complex, 50 μL 2% Nitrosol, 50 μL PG): 22000 µg/mL
Observation ([5]; Iron maltol made at pH 4, 20 mg complex, 0.1 mL Kolliphore, 0.1 mL PEG400): Precipitated
Observation ([5]; Iron maltol made at pH 4, 20 mg complex, 0.1 mL Kolliphore, 0.1 mL PEG400, 10% SDS): Precipitated
Observation ([5]; Iron maltol made at pH 4, 20 mg complex, 0.2 mL Kolliphore): Precipitated
Observation ([5]; Iron maltol made at pH 4, 100 mg complex, 2 mL methanol, 1 mL 80:20 PEG400:PEG1000, precipitate upon methanol evaporation): Precipitate
Observation [5, 7]: Clear
Visual solubility (complex) [5, 7]: (32 mg/mL
Observation ([5]; Iron maltol made at pH 7.4, 10 mg complex, 62.5 μL PG, 62.5 μL water, 125 μL Kolliphore): Precipitated
Observation [5, 8]: Clear
Visual solubility (complex) [5, 8]: (32 mg/mL
Observation ([5]; Iron maltol made at pH 7.4, 20 mg complex, 6 μL Span 20, 0.125 mL ethanol, 0.5 mL PG): Precipitated
Observation ([5]; Iron maltol made at pH 7.4, 30 mg complex, 6 μL Tween 85, 0.125 mL ethanol, 0.5 mL PG): Precipitated
Observation ([5]; Iron maltol made at pH 7.4, 40 mg complex, 12 mg SDS, 0.125 mL ethanol, 0.5 mL PG): Precipitated
Compound: Cc1occc(=O)c1[O-].Cc1occc(=O)c1[O-].Cc1occc(=O)c1[O-].[Fe+3] [Iron maltol, iron maltol]
